Reference: ChEMBL document CHEMBL5620430, “Design, synthesis and biological evaluation of indazole derivatives as selective covalent inhibitors of FGFR4 in wild-type and gatekeeper mutants” (Eur J Med Chem, 2023)
pIC50: −log10 of the molar value. Activity calls are given as the source filed them. The rule behind the calls is not given here.

Tests used:
[1] = Antiproliferative activity against human L02 cells measured after 24 to 48 hrs by MTT assay; type: toxicity, cell-based
Hep 3B2 = test: Antiproliferative activity against human Hep3B cells measured after 24 to 48 hrs by MTT assay; type: functional, cell-based
HepG2 = test: Antiproliferative activity against human HepG2 cells measured after 24 to 48 hrs by MTT assay; type: functional, cell-based
[2] = Half life in Sprague-Dawley rat at 2 mg/kg, iv by LC-MS/MS analysis; type: ADME, organism-based; conditions: in vivo
[3] = Tmax in Sprague-Dawley rat at 2 mg/kg, iv by LC-MS/MS analysis; type: ADME, organism-based; conditions: in vivo
[4] = Tmax in Sprague-Dawley rat at 10 mg/kg, po by LC-MS/MS analysis; type: ADME, organism-based; conditions: in vivo
[5] = Cmax in Sprague-Dawley rat at 2 mg/kg, iv by LC-MS/MS analysis; type: ADME, organism-based; conditions: in vivo
[6] = Cmax in Sprague-Dawley rat at 10 mg/kg, po by LC-MS/MS analysis; type: ADME, organism-based; conditions: in vivo
[7] = AUC (0 to t) in Sprague-Dawley rat at 2 mg/kg, iv by LC-MS/MS analysis; type: ADME, organism-based; conditions: in vivo
[8] = MRT (0 to t) in Sprague-Dawley rat at 2 mg/kg, iv by LC-MS/MS analysis; type: ADME, organism-based; conditions: in vivo
[9] = MRT (0 to t) in Sprague-Dawley rat at 10 mg/kg, po by LC-MS/MS analysis; type: ADME, organism-based; conditions: in vivo
[10] = Observed clearance in Sprague-Dawley rat at 2 mg/kg, iv by LC-MS/MS analysis; type: ADME, organism-based; conditions: in vivo
[11] = Oral bioavailability in Sprague-Dawley rat at 10 mg/kg by LC-MS/MS analysis; type: ADME, organism-based; conditions: in vivo
[12] = molecular target: T1, Fibroblast growth factor receptor 4 (Homo sapiens, UniProt P22455); test: Inhibition of FGFR4 in human Huh-7 cells assessed as inhibition of MEK phosphorylation measured after 2 hrs by Western blot analysis; type: cell-based
Target sequence in this assay (P22455 22-802 limits assumed): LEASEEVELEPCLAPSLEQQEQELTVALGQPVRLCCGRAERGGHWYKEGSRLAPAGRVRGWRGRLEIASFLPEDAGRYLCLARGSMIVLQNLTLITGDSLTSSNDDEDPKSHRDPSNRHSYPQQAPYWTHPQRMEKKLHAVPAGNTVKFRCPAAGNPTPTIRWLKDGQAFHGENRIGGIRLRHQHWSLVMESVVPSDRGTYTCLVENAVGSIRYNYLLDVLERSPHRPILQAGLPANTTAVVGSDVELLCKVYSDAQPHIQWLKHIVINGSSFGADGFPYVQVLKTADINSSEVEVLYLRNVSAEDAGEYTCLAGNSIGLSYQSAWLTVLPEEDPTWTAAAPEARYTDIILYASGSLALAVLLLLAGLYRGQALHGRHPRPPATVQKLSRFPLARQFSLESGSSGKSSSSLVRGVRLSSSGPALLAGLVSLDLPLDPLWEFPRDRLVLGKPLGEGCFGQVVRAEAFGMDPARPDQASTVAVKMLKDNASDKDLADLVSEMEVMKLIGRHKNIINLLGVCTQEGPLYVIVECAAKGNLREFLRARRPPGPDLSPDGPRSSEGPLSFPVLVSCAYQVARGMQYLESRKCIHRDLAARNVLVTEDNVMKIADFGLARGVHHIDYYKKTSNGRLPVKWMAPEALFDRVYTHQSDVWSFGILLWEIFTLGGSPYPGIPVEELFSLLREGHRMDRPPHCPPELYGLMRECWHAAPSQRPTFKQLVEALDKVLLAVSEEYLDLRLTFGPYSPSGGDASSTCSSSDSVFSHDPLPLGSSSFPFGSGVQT

[13] = molecular target: T1, Fibroblast growth factor receptor 4; test: Inhibition of FGFR4 in human Huh-7 cells assessed as inhibition of ERK1/2 phosphorylation measured after 2 hrs by Western blot analysis; type: cell-based
Target sequence in this assay (P22455 22-802 limits assumed): as above

[14] = molecular target: T1, Fibroblast growth factor receptor 4; test: Inhibition of FGFR4 in human Huh-7 cells assessed as inhibition of MEK phosphorylation at 0.5 uM by Western blot analysis; type: cell-based; conditions: time <= 24.0 hrs, TDE = time-dependent effect
Target sequence in this assay (P22455 22-802 limits assumed): as above

[15] = molecular target: T1, Fibroblast growth factor receptor 4; test: Inhibition of FGFR4 in human Huh-7 cells assessed as inhibition of ERK1/2 phosphorylation at 0.5 uM by Western blot analysis; type: cell-based; conditions: time <= 24.0 hrs, TDE = time-dependent effect
Target sequence in this assay (P22455 22-802 limits assumed): as above

[16] = molecular target: T1, Fibroblast growth factor receptor 4; test: Inhibition of FGFR4 phosphorylation in human Huh-7 cells at 120 nM by Western blot analysis; type: cell-based
Target sequence in this assay (P22455 22-802 limits assumed): as above

[17] = molecular target: T1, Fibroblast growth factor receptor 4; test: Inhibition of FGFR4 in human Huh-7 cells assessed as inhibition of ERK1/2 phosphorylation incubated for 2 hrs followed by compound washout and measured upto 8 hrs by Western blot analysis; type: cell-based
Target sequence in this assay (P22455 22-802 limits assumed): as above

Huh-7 [18] = test: Inhibition of colony formation in human Huh-7 cells assessed as reduction in number of colonies at 10 to 270 nM measured for 12 days; type: functional, cell-based; conditions: dose 10-270 nM, time 12.0 day
Huh-7 [19] = test: Induction of apoptosis in human Huh-7 cells assessed as late apoptotic cells at 1 uM measured after 48 hrs by AnnexinV-FITC/PI staining based flow cytometry (reference value: 2.55%); type: functional
Huh-7 [20] = test: Induction of apoptosis in human Huh-7 cells assessed as late apoptotic cells at 2 uM measured after 48 hrs by AnnexinV-FITC/PI staining based flow cytometry (reference value: 2.55%); type: functional
Huh-7 [21] = test: Inhibition of cell migration in human Huh-7 cells at 5 uM incubated for 24 hrs by wound healing assay relative to control; type: functional
Huh-7 [22] = test: Antitumor activity against human Huh-7 cells xenografted in NSG mouse assessed as suppression of tumor growth at 20 mg/kg, ip administered twice per day for 2 weeks relative to control; type: functional
Huh-7 [23] = test: Antitumor activity against human Huh-7 cells xenografted in NSG mouse assessed as suppression of tumor growth at 40 mg/kg, ip administered twice per day for 2 weeks relative to control; type: functional
Huh-7 [24] = test: Antitumor activity against human Huh-7 cells xenografted in ip dosed NSG mouse assessed as suppression of tumor growth administered twice per day for 2 weeks; type: functional, organism-based; conditions: dose 20-40 mg/kg
Huh-7 [25] = test: Antitumor activity against human Huh-7 cells xenografted in ip dosed NSG mouse assessed as decrease in FGFR4 phosphorylation level administered twice per day for 2 weeks; type: functional, organism-based; conditions: dose 20-40 mg/kg
[26] = Toxicity in NSG mouse assessed as effect on heart at 20 to 40 mg/kg by H and E staining based analysis; type: organism-based; conditions: in vivo, dose 20-40 mg/kg
[27] = Toxicity in NSG mouse assessed as effect on liver at 20 to 40 mg/kg by H and E staining based analysis; type: organism-based; conditions: in vivo, dose 20-40 mg/kg
[28] = Toxicity in NSG mouse assessed as effect on spleen at 20 to 40 mg/kg by H and E staining based analysis; type: organism-based; conditions: in vivo, dose 20-40 mg/kg
[29] = Toxicity in NSG mouse assessed as effect on lung at 20 to 40 mg/kg by H and E staining based analysis; type: organism-based; conditions: in vivo, dose 20-40 mg/kg
[30] = Toxicity in NSG mouse assessed as lethality at 20 to 40 mg/kg […]; type: organism-based; conditions: in vivo, dose 20-40 mg/kg
[31] = Toxicity in NSG mouse assessed as effect on body weight at 20 to 40 mg/kg […]; type: organism-based; conditions: in vivo, dose 20-40 mg/kg
[32] = Toxicity in NSG mouse assessed as effect on AST level at 20 to 40 mg/kg […]; type: organism-based; conditions: in vivo, dose 20-40 mg/kg
[33] = Toxicity in NSG mouse assessed as effect on TP level at 20 to 40 mg/kg […]; type: organism-based; conditions: in vivo, dose 20-40 mg/kg
[34] = Toxicity in NSG mouse assessed as effect on UA level at 20 to 40 mg/kg […]; type: organism-based; conditions: in vivo, dose 20-40 mg/kg
[35] = Toxicity in NSG mouse assessed as effect on CK level at 20 to 40 mg/kg […]; type: organism-based; conditions: in vivo, dose 20-40 mg/kg
[36] = Toxicity in NSG mouse assessed as effect on LDH level at 20 to 40 mg/kg […]; type: organism-based; conditions: in vivo, dose 20-40 mg/kg
[37] = Toxicity in NSG mouse assessed as effect on LDL-C level at 20 to 40 mg/kg […]; type: organism-based; conditions: in vivo, dose 20-40 mg/kg
[38] = Toxicity in NSG mouse assessed as effect on HDL-C level at 20 to 40 mg/kg […]; type: organism-based; conditions: in vivo, dose 20-40 mg/kg
[39] = Toxicity in NSG mouse assessed as effect on CHO level at 20 to 40 mg/kg […]; type: organism-based; conditions: in vivo, dose 20-40 mg/kg
[40] = molecular target: T1, Fibroblast growth factor receptor 4
Target sequence in this assay (P22455 whole entry): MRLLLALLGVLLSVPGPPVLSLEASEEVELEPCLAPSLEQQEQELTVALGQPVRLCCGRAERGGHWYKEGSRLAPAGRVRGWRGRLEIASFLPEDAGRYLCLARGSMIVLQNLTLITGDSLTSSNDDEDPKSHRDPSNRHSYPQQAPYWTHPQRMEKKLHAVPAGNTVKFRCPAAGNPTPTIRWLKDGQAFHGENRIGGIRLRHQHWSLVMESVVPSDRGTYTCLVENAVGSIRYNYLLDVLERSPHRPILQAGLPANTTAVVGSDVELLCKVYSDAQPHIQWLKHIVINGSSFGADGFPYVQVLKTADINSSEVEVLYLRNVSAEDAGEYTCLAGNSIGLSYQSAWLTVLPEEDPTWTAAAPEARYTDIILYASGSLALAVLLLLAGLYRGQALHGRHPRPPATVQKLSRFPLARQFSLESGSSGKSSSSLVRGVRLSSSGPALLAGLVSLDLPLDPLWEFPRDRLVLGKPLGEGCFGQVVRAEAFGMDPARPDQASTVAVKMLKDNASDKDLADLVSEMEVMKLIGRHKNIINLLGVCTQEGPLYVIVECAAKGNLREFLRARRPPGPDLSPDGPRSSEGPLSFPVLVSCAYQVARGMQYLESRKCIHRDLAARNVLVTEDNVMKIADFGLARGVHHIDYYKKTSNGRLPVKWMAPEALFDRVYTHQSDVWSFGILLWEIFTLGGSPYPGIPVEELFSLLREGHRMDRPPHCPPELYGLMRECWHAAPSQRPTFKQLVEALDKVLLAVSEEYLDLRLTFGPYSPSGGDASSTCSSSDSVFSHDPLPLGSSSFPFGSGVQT
Description: Inhibition of FGFR4 (445 to 753 residues) (unknown origin) expressed in Escherichia coli

[41] = molecular target: Fibroblast growth factor receptor 3 (Homo sapiens, UniProt P22607)
Description: Inhibition of FGFR3 (unknown origin)

Huh-7 [42] = test: cells; conditions: Homo sapiens
Description: Antiproliferative activity against human Huh-7 cells measured after 24 to 48 hrs by MTT assay

BaF3 = test: cells; conditions: Mus musculus
Description: Antiproliferative activity against mouse BaF3 cells harbouring ETV6-FGFR4-V550L mutant measured after 24 to 48 hrs by MTT assay

Fibroblast growth factor receptor 3, sequence (P22607 whole entry): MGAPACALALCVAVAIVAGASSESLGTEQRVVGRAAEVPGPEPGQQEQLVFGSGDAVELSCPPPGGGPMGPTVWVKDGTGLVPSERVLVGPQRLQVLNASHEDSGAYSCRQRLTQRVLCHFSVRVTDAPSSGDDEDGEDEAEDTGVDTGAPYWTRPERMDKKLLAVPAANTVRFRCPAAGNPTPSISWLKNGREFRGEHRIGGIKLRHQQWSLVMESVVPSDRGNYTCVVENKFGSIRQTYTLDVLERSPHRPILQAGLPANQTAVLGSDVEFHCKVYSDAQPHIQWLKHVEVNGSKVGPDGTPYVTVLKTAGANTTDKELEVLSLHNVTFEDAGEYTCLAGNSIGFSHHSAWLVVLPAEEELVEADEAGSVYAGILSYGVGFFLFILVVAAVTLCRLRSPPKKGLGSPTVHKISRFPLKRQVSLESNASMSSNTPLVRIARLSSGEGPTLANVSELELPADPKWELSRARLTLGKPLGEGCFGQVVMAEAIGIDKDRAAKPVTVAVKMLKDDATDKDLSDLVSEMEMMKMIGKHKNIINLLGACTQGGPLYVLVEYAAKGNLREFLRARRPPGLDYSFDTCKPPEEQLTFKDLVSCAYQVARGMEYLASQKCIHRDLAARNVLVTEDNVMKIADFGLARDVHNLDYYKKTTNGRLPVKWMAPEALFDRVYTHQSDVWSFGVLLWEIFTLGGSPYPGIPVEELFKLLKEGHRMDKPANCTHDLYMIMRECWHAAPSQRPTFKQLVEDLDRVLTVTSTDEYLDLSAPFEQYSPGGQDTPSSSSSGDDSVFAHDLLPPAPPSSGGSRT

Work on `C=CC(=O)Nc1cc2c(cc1-c1n[nH]c3ccc(O[C@H](C)c4c(Cl)cncc4Cl)cc13)CCN(C)C2` yielded a pIC50 [1] of less than 5.00, a pIC50 (Hep 3B2) of 7.42 and a pIC50 (HepG2) of less than 5.30. It also gave a half-life [2] of 420 min, a Tmax [3] of 4.8 min and a Tmax [4] of 1.67 h. It also gave a Cmax [5] of 214 ng/mL, a Cmax [6] of 4.91 ng/mL and an AUC(0-t) [7] of 192 ng·h/mL. It also gave an MRT last [8] of 1.55 h, an MRT last [9] of 3.04 h and a clearance [10] of 174 mL/min/kg. The bioavailability [11] was 1.36%, the inhibition [12] was “Dose-Dependent Effect” and the inhibition [13] was “Dose-Dependent Effect”. The inhibition [14] was “Tde”, the inhibition [15] was “Tde” and the inhibition [16] was “Active”. For the same compound, the inhibition [17] was “Active”, the inhibition (Huh-7 [18]) was “Active” and the Activity (Huh-7 [19]) was 7.46%. The Activity (Huh-7 [20]) was 11.39%, the inhibition at 5 µM (Huh-7 [21]) was 90% and the Activity (Huh-7 [22]) was 60.2%. The Activity (Huh-7 [23]) was 83%, the Activity (Huh-7 [24]) was “Dose-Dependent Effect” and the Activity (Huh-7 [25]) was “Dose-Dependent Effect”. For the same compound, the Activity [26] was “Non-Toxic”, the Activity [27] was “Non-Toxic” and the Activity [28] was “Non-Toxic”. For the same compound, the Activity [29] was “Non-Toxic”, the Activity [30] was “Non-Toxic” and the Activity [31] was “Non-Toxic”. The Activity [32] was “Non-Toxic”, the Activity [33] was “Non-Toxic” and the Activity [34] was “Non-Toxic”. The Activity [35] was “Non-Toxic”, the Activity [36] was “Non-Toxic” and the Activity [37] was “Non-Toxic”. The Activity [38] was “Non-Toxic”, the Activity [39] was “Non-Toxic” and the pIC50 [40] was 8.62. It also gave a pIC50 [41] of less than 2.52, a pIC50 (Huh-7 [42]) of 7.68 and a pIC50 (BaF3) of 8.70.
